Laboratory results taken from patent US9669034B2, “4-aryl-N-phenyl-1,3,5-triazin-2-amines containing a sulfoximine group” (BAYER INTELLECTUAL PROPERTY GMBH, priority 2011, dated 2017).
pIC50: −log10 of the molar value.

Experiments:
[1] = target: CDK9/CycT1 (Homo sapiens (Human), UniProt P50750); test: CDK9/CycT1 kinase assay (TR-FRET); assay type: biochemical; settings: Method 1
Outline: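 TR-FRET read-out of kinase inhibition, with a biotin-Ttds-tagged peptide as substrate. Enzyme: human CDK9 and CycT1, full-length with His tags, produced in insect cells and purified on Ni-NTA.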

[2] = target: CDK2/CycE (Homo sapiens (Human), UniProt P24941); test: CDK2/CycE kinase assay (TR-FRET); assay type: biochemical; settings: Method 2
Outline: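 TR-FRET measurement of inhibition of phosphorylation of a biotinylated peptide substrate. Enzyme complex consisted of human CDK2 and CycE, each as a GST fusion made in Sf9 cells and purified over glutathione-Sepharose.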

[3] = tested on: HeLa human cervical tumour cells; test: Proliferation assay (crystal violet), HeLa; assay type: cell-based; settings: Homo sapiens, HeLa, Method 3, read-out: Inhibition of HeLa cell proliferation, IC50
Procedure: (§1) Cultivated tumour cells (NCI-H460, human non-small cell lung carcinoma cells, ATCC HTB-177; DU145, hormone-independent human prostate carcinoma cells, ATCC HTB-81; HeLa-MaTu, human cervical carcinoma cells, EPO-GmbH, Berlin; HeLa-MaTu-ADR, multidrug-resistant human cervical carcinoma cells, EPO-GmbH, Berlin; HeLa human cervical tumour cells, ATCC CCL-2; Caco-2 human colorectal carcinoma, ATCC HTB-37; B16F10 mouse melanoma cells, ATCC CRL-6475) were plated at a density of 5000 cells/well (DU145, HeLa-MaTu-ADR), 3000 cells/well (NCI-H460, HeLa-MaTu, HeLa), 1500 cells/well (Caco-2), or 1000 cells/well (B16 F10) in a 96-well multititer plate in 200 μL of their respective growth medium supplemented 10% fetal calf serum. After 24 hours, the cells of one plate (zero-point plate) were stained with crystal violet (see below), while the medium of the other plates was replaced by fresh culture medium (200 μL), to which the test substances were added in various concentrations (0 M, as well as in the range of […]; the final concentration of the solvent dimethylsulfoxide was 0.5%). The cells were incubated for 4 days in the presence of test substances. Cell proliferation was determined by staining the cells with crystal violet: the cells were fixed by adding 20 μL/measuring point of an 11% glutaric aldehyde solution for 15 minutes at room temperature. After three washing cycles of the fixed cells with water, the plates were dried at room temperature. The cells were stained by adding 100 μL/measuring point of a 0.1% crystal violet solution (pH 3.0). After three washing cycles of the stained cells with water, the plates were dried at room temperature. The dye was dissolved by adding 100 μL/measuring point of a 10% acetic acid solution. The absorbance was determined by photometry at a wavelength of 595 nm. The change of cell number, in percent, was calculated by normalization of the measured values to the absorbance values of the zero-point plate (=0%) and the absorbance of the untreated (0 M) cells (=100%). The IC50 values were determined by means of a 4 parameter fit.

[4] = tested on: HeLa-MaTu-ADR, multidrug-resistant human cervical carcinoma cells; test: Proliferation assay (crystal violet), HeLa-MaTu-ADR; assay type: cell-based; settings: Homo sapiens, HeLa, Method 3, read-out: Inhibition of HeLa/MaTu/ADR cell proliferation, IC50
Procedure: as §1

[5] = tested on: NCI-H460, human non-small cell lung carcinoma cells; test: Proliferation assay (crystal violet), NCI-H460; assay type: cell-based; settings: Homo sapiens, NCI-H460, NCI-H460 cells, Method 3; read-out: Inhibition of NCI-H460 cell proliferation, IC50
Procedure: as §1

[6] = tested on: DU145, hormone-independent human prostate carcinoma cells; test: Proliferation assay (crystal violet), DU145; assay type: cell-based; settings: Homo sapiens, DU-145, DU145 cells, Method 3; read-out: Inhibition of DU145 cell proliferation, IC50
Procedure: as §1

[7] = tested on: Caco-2 human colorectal carcinoma; test: Proliferation assay (crystal violet), Caco-2; assay type: cell-based; settings: Homo sapiens, Caco-2, Caco-2 cells, Method 3; read-out: Inhibition of Caco-2 cell proliferation, IC50
Procedure: as §1

[8] = tested on: B16F10 mouse melanoma cells; test: Proliferation assay (crystal violet), B16F10; assay type: cell-based; settings: Mus musculus, B16-F10, B16F10 cells, Method 3; read-out: Inhibition of B16F10 cell proliferation, IC50
Procedure: as §1

Chain of CDK9/CycT1 (P50750 whole entry): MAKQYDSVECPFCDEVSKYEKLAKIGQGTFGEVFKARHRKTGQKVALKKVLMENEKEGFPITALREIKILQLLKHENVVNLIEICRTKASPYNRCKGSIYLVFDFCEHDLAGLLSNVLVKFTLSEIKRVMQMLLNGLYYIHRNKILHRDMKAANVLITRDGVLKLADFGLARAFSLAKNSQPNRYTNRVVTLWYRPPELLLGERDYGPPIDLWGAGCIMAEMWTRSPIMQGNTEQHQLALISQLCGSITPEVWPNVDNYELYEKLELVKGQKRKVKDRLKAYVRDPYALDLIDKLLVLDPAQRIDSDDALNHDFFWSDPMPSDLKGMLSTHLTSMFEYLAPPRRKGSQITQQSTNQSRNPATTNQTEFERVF
Chain of CDK9/CycT1 (O60563 whole entry partner): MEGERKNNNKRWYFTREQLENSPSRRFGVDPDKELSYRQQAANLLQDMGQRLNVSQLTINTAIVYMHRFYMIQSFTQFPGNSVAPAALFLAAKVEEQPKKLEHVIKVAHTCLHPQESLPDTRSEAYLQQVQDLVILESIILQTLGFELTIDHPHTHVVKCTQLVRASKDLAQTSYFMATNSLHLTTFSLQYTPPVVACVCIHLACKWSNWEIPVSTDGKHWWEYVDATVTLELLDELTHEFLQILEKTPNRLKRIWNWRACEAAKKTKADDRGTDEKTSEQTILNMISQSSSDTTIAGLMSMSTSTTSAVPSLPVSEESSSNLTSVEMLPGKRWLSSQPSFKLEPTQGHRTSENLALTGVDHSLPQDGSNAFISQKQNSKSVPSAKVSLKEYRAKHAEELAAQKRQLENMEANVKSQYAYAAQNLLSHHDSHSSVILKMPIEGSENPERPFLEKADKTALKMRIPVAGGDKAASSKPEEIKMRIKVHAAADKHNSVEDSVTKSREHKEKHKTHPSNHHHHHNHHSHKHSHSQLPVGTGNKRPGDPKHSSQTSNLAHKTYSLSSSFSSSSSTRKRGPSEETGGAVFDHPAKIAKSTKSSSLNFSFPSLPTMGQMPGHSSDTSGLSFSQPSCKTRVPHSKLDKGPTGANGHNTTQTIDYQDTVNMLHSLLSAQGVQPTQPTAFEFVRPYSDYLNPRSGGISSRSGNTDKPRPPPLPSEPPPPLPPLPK

Compound | pIC50 [1] | pIC50 [2] | pIC50 [3] | pIC50 [4] | pIC50 [5] | pIC50 [6] | pIC50 [7] | pIC50 [8]
CCOC(=O)N=S(C)(=O)Cc1cccc(Nc2ncnc(-c3cccc4c3OCCO4)n2)c1 (racemic) [Example 37, (rac)-Ethyl [(3-{[4-(2,3-dihydro-1,4-benzodioxin-5-yl)-1,3,5-triazin-2-yl]amino}benzyl)(methyl)oxido-λ^6-sulfanylidene]carbamate] | 8.05 | 5.64 | 6.20 | 6.12 | 6.04 | 6.30 | 6.09 | 6.14
CCOC(=O)N=S(C)(=O)Cc1cccc(Nc2ncnc(-c3ccccc3OCc3ccc(F)cc3)n2)c1 (racemic) [Example 42, (rac)-Ethyl [{3-[(4-{2-[(4-fluorobenzyl)oxy]phenyl}-1,3,5-triazin-2-yl)amino]benzyl}(methyl)oxido-λ^6-sulfanylidene]carbamate] | 8.30 | 5.80 | 6.21 | 6.28 | 6.43 | 6.23 | 6.17 | 6.17
COc1cc(F)ccc1-c1ncnc(Nc2cccc(CS(C)(=O)=NC#N)c2)n1 (racemic) [Example 48, (rac)-[(3-{[4-(4-fluoro-2-methoxyphenyl)-1,3,5-triazin-2-yl]amino}benzyl)(methyl)oxido-λ^6-sulfanylidene]cyanamide] | 7.89 | 6.20 | 6.48 | 6.40 | 6.39 | 6.55 | 6.38 | 6.49
COc1cc(F)ccc1-c1ncnc(Nc2cc(Cl)cc(CS(C)(=N)=O)c2)n1 (racemic) [Example 64, (rac)-N-{3-Chloro-5-[(S-methylsulfonimidoyl)methyl]phenyl}-4-(4-fluoro-2-methoxyphenyl)-1,3,5-triazin-2-amine] | 7.82 | 6.60 | 6.40 | 6.55 | 6.44 | 6.54 | 6.46 | 6.49
COc1cc(F)ccc1-c1ncnc(Nc2cc(F)cc(CS(C)(=O)=NC#N)c2)n1 (racemic) [Example 70, (rac)-[(3-Fluoro-5-{[4-(4-fluoro-2-methoxyphenyl)-1,3,5-triazin-2-yl]amino}benzyl)(methyl)oxido-λ^6-sulfanylidene]cyanamide] | 8.22 | 6.74 | 6.82 | 6.92 | 6.64 | 7.10 | 6.77 | 6.89
C=CCOc1cc(F)ccc1-c1ncnc(Nc2cccc(CS(C)(=N)=O)c2)n1 (racemic) [Example 85, (rac)-4-[4-Fluoro-2-(prop-2-en-1-yloxy)phenyl]-N-{3-[(S-methylsulfonimidoyl)methyl]phenyl}-1,3,5-triazin-2-amine] | 8.05 | 6.42 | 6.48 | 6.25 | 6.64 | 6.72 | 7.29 | 6.55
CS(=N)(=O)Cc1cccc(Nc2ncnc(-c3ccc(F)cc3OCc3cc(F)cc(C(F)(F)F)c3)n2)c1 (racemic) [Example 89, (rac)-4-(4-Fluoro-2-{[3-fluoro-5-(trifluoromethyl)benzyl]oxy}phenyl)-N-{3-[(S-methylsulfonimidoyl)methyl]phenyl}-1,3,5-triazin-2-amine] | 8.40 | 6.55 | 6.33 | 6.35 | 6.43 | 6.38 | 6.28 | 6.33
CS(=N)(=O)Cc1cccc(Nc2ncnc(-c3ccc(F)cc3OCc3cc(F)cc(Cl)c3)n2)c1 (racemic) [Example 94, (rac)-4-{2-[(3-Chloro-5-fluorobenzyl)oxy]-4-fluorophenyl}-N-{3-[(S-methylsulfonimidoyl)methyl]phenyl}-1,3,5-triazin-2-amine] | 8.52 | 6.64 | 6.96 | 6.72 | 6.70 | 6.85 | 6.66 | 6.74

Other lines, results leading:

pIC50 [1] | pIC50 [2] | pIC50 [3] | pIC50 [4] | pIC50 [5] | pIC50 [6] | pIC50 [7] | pIC50 [8] | Compound
8.05 | 5.72 | 6.23 | 5.96 | 6.28 | 6.10 | 5.96 | 6.10 | CS(=N)(=O)Cc1cccc(Nc2ncnc(-c3ccccc3OCc3ccc(F)cc3)n2)c1 (racemic) [Example 43, (rac)-4-{2-[(4-Fluorobenzyl)oxy]phenyl}-N-{3-[(S-methylsulfonimidoyl)methyl]phenyl}-1,3,5-triazin-2-amine]
8.22 | 6.39 | 6.43 | 6.11 | 6.46 | 6.43 | 6.07 | 6.33 | CS(=N)(=O)Cc1cccc(Nc2ncnc(-c3ccc(F)cc3OCc3ccc(F)cc3)n2)c1 (racemic) [Example 56, (rac)-4-{4-Fluoro-2-[(4-fluorobenzyl)oxy]phenyl}-N-{3-[(S-methylsulfonimidoyl)methyl]phenyl}-1,3,5-triazin-2-amine]
7.85 | 5.82 | 6.39 | 5.52 | 5.96 | 6.34 | 5.89 | 6.13 | CS(=N)(=O)Cc1cccc(Nc2ncnc(-c3ccc(F)cc3OCc3ccncc3)n2)c1 (racemic) [Example 68, (rac)-4-[4-Fluoro-2-(pyridin-4-ylmethoxy)phenyl]-N-{3-[(S-methylsulfonimidoyl)methyl]phenyl}-1,3,5-triazin-2-amine]
8.15 | 6.44 | 6.74 | 6.72 | 6.74 | 6.89 | 6.74 | 6.82 | CS(=N)(=O)Cc1cccc(Nc2ncnc(-c3ccc(F)cc3OCc3ccnc(F)c3)n2)c1 (racemic) [Example 82, (rac)-4-{4-Fluoro-2-[(2-fluoropyridin-4-yl)methoxy]phenyl}-N-{3-[(S-methylsulfonimidoyl)methyl]phenyl}-1,3,5-triazin-2-amine]
8.52 | 6.17 | 6.25 | 6.35 | 6.24 | 6.21 | 6.10 | 6.23 | CS(=N)(=O)Cc1cccc(Nc2ncnc(-c3ccc(F)cc3OCc3ccc(Cl)cc3)n2)c1 (racemic) [Example 87, (rac)-4-{2-[(4-Chlorobenzyl)oxy]-4-fluorophenyl}-N-{3-[(S-methylsulfonimidoyl)methyl]phenyl}-1,3,5-triazin-2-amine]
8.70 | 6.59 | 6.77 | 7.00 | 6.96 | 6.96 | 7.10 | 7.00 | CS(=N)(=O)Cc1cccc(Nc2ncnc(-c3ccc(F)cc3OCc3cccc(F)c3)n2)c1 (racemic) [Example 90, (rac)-4-{4-Fluoro-2-[(3-fluorobenzyl)oxy]phenyl}-N-{3-[(S-methylsulfonimidoyl)methyl]phenyl}-1,3,5-triazin-2-amine]
8.40 | 6.60 | 6.33 | 6.44 | 6.77 | 6.42 | 6.37 | 6.41 | CS(=N)(=O)Cc1cccc(Nc2ncnc(-c3ccc(F)cc3OCc3cccc(Cl)c3)n2)c1 (racemic) [Example 92, (rac)-4-{2-[(3-Chlorobenzyl)oxy]-4-fluorophenyl}-N-{3-[(S-methylsulfonimidoyl)methyl]phenyl}-1,3,5-triazin-2-amine]
